# Reference: a melting point compilation (Tetko et al.; mined from patent text by program, amines drawn as free bases though some values may be those of a salt)
row,Compound,melting point
1,Cc1cc(CO)ccc1NC(=O)N1CCN(c2ccc(NC(=O)Nc3ccccc3F)cc2)CC1,229 to 230 °C
2,CC(=O)Oc1cnc(C(C)(C)C)nc1O,164 °C
3,COc1ccc(ON2CN=C(c3ccccc3F)O2)cc1,99.1 °C
4,CNC(=O)N(O)CCCNC(=O)c1cccc(Oc2ccccc2)c1,175 to 177 °C
5,COc1cc(Nc2nccc(-c3ccc(N)s3)n2)cc(OC)c1OC,161 to 162 °C
6,NNc1ncc(-c2ccccc2)cn1,155 °C
7,CNC(=O)c1cc(-c2ccc(OC)cc2)nn(CC=Cc2ccccc2)c1=O,160 to 161 °C
8,CO[C@H]1CC[C@H]([C@H]2CC[C@H](CCC=O)CC2)CC1,36 °C
9,O=C(NN=Cc1ccnc2ccccc12)c1ccc(C(F)(F)F)cc1,240 °C
10,Cc1nnc(C(C)C)n1C1CC2CCC(C1)N2CCC(NC(=O)C1CCC(F)(F)CC1)c1ccc(N)cc1 (configuration not stated),103 to 105 °C
11,COc1ccc(CNc2nc3ccccc3c3[nH]c(C4CCCC4)nc23)cc1,245 to 247 °C
12,CC(C)(C)c1cc(CN)cc(C(C)(C)C)c1O,159 °C
13,CCCCCCCCCCCCCCCNC(=O)OCCOCCOC(=O)N(Cc1ccccn1)C(C)=O,53 to 55 °C
14,Oc1ccc(-c2nnc(CSCCCCOc3ccccc3)o2)cc1,129 to 130 °C
15,OCCN1CCN(c2ccc3nc(-c4ccc(Cl)s4)c(-c4ccncc4)n3n2)CC1,216 to 218 °C
16,CCCc1c(OCCCCCOc2ccc3c(=O)cc(C(=O)OC)oc3c2CCC)ccc(C(C)=O)c1O,86 to 87 °C
17,CCOC(=O)c1cnoc1-c1ccc(Cl)cc1Cl,82 to 84 °C
18,COc1ccc(Oc2c(SCc3ccccc3)cc(C(=O)O)cc2S(N)(=O)=O)cc1,215 to 216 °C
19,O=C(OCC1CC1)c1ncn2c1[C@@H]1CCCN1C(=O)c1c(Br)cccc1-2,135 to 136 °C
20,O=C(NCc1cccs1)C12CC3CC(CC(O)(C3)C1)C2,140 to 141 °C
21,CC(C)(C)C(=O)Nc1cc(Cl)c(Cl)cn1,105 to 106 °C
22,NC(=O)c1ccc([N+](=O)[O-])c(N2CC2)c1,223 to 224 °C
23,Cc1cc(-c2ccc(S(C)(=O)=O)cc2)n(-c2ccc(F)cc2)c1Br,158 to 159 °C
24,CN1c2ccc(C=C3SC(=O)NC3=O)cc2CCC1Cc1ccccc1 (configuration not stated),214 to 217 °C
25,CCC(C)(C)c1cc(-n2nc3ccccc3n2)c(O)c(C(C)(C)CC)c1,77 to 79 °C
26,C#CCOc1cc(C=O)ccc1OC,66 to 67 °C

row,Compound,melting point
1,O=C1C=C(C2CCC(c3ccc(Cl)cc3)CC2)C(=O)c2ccccc21 (configuration not stated),147 to 149 °C
2,O=C1CN(c2ccc(Cl)cc2)C(=O)N1S(=O)(=O)c1ccc(Cl)cc1,239 to 240 °C
3,CC(C)CNC(=S)Nc1cccc(NC(=O)Nc2ccc(Cl)cc2)c1,195 to 196 °C
4,CCOC(=O)c1ccsc1NC(=O)NC,83 to 87 °C
5,CSCCCn1c(C)nc2c(N)nc3ccccc3c21,199 to 202 °C
6,Cc1c(SCCCSc2ccc3ncc([N+](=O)[O-])n3n2)ccnc1CCl,155 to 156 °C
7,CSc1nccn1CC(=O)O,176 °C
8,CC1=NC(=Cc2ccc(C#N)cc2)C(=O)O1,192 to 193 °C
9,CC(=O)Nc1ccc(Cl)cc1C(=O)c1c(F)cccc1F,106 to 116 °C
10,CC(=O)C(=CN(C)C)c1ccccc1,66 °C
11,O=C(O)CCCC(=O)S[C@@H]1CC(=O)N(Cc2ccc(Oc3ccc(F)cc3)nc2)C1,132 to 133 °C
12,CC(C)COc1ccc2c(c1)CCC1C2=CCC2(C)C(=O)CCC12 (configuration not stated),107 to 108 °C
13,CN1CCN(CCCN2N=C3C(=Cc4ccccc4)CSCC3C2c2ccccc2)CC1 (configuration not stated),90.5 to 92.5 °C
14,CCCc1nc2c(N)nc3cc(F)ccc3c2o1,184 to 187 °C
15,O=[N+]([O-])c1ccc(Cl)c(Cl)c1Br,73 °C
16,CC(C)(C)c1cccc(S(=O)(=O)n2c(Cc3ccc(C(=O)O)cc3)c(F)c3cc(C(F)(F)F)ccc32)c1,158 °C
17,Cc1noc(NS(=O)(=O)c2cccc3c(N(C)C)cccc23)c1Br,87 to 89 °C
18,CC(C)c1n[nH]c2c(O)nc(O)nc12,295 to 298 °C
19,CC(=O)Oc1c(Cl)ccc2c(-c3ccccc3)c(Sc3ccccc3)c(Sc3ccccc3)c(-c3ccccc3)c12,138 to 140 °C
20,Cc1cc(CC(=O)N[C@H]2CC[C@H](CCN3CCN(c4nccc5c4CCO5)CC3)CC2)on1,172 °C
21,Cn1cc(-c2cccc(N3Cc4cc(C(C)(C)C)ccc4C3=O)c2CO)cc(Nc2cc(C3CC3)n[nH]2)c1=O,178 to 180 °C
22,COc1ccc2ccc(N3C(=O)C4=C(SCC(OC)CS4)C3OC(=O)N3CCN(C)CC3)nc2n1 (configuration not stated),215 °C
23,O=C1C(O)=C(CC2CCCC(C(F)(F)F)C2)C(=O)c2ccccc21 (configuration not stated),142 °C
24,O=C1CCCNc2ccc(Br)cc21,99 to 101 °C
25,O=C(Nc1ccccc1-c1nnc(CSCCOc2ccccc2)o1)N1CCCC1,184 to 185 °C

# Now from value to compound:
row,melting point,Compound
1,173 to 174 °C,CCC(=CC#N)c1ccc2c(c1)C1(CCCCC1)OC(=O)N2
2,162 °C,Cc1cc(Nc2ccnc(Nc3ccc(S(=O)(=O)N4CCC(C(O)c5ccncc5)CC4)cc3)n2)ccc1F (configuration not stated)
3,32 to 33 °C,O=C(O)CCCCCCCCc1cccs1
4,> 230 °C,O=C(Nc1ccc(-n2nc(C(F)(F)F)cc2C(F)(F)F)cc1)c1cc([N+](=O)[O-])cc([N+](=O)[O-])c1
5,158 to 160 °C,O=C1c2ccccc2C(=O)N1OCn1ccnc1
6,46 to 48 °C,COc1cc(CC2SC(=O)NC2=O)ccc1OCCN1c2ccccc2Sc2ccccc21 (configuration not stated)
7,136 to 138 °C,CCN(CC)CCNC(=O)c1nc2ccc(I)cc2[nH]1
8,39.8 to 41 °C,COc1nc(C)c(N)cc1C
9,253 °C,O=C(Nc1cccc(S(=O)(=O)N2CCOCC2)c1)c1cnn2c(C(F)F)cc(-c3ccc(Cl)cc3)nc12
10,138 to 139 °C,Clc1ccc(C(c2ccccc2)c2c(Cl)ncnc2Cl)c(Cl)c1 (configuration not stated)
11,198 °C,CCn1c(=O)c2c(nc(/C=C/c3ccc(OC(C)=O)cc3)n2C)n(CC)c1=O
12,69 to 70 °C,O=C1C=CCC(CCc2ccc(Cl)cc2Cl)O1 (configuration not stated)
13,75 to 76 °C,COc1cc(C)ccc1Oc1ccc(Br)cc1O
14,177 °C,O=C(NCc1ccncc1)c1ccccc1
15,118 to 119 °C,COc1ccccc1CCc1ccccc1C(=O)O
16,99 to 100 °C,COc1ccc(Cn2c(=O)c3ccccc3n(CCCCN3CCC(OC(c4ccccc4)c4ccccc4)CC3)c2=O)cc1
17,69 to 71 °C,C=CCOc1cc(-c2ncnc(C(F)F)c2Cl)c(F)cc1Cl
18,109 to 112 °C,CN(C(=O)OC(C)(C)C)c1ccc2onc(OCC(CO)NC(=O)OC(C)(C)C)c2c1 (configuration not stated)
19,156 °C,CC(C)(C)OC(=O)N1C(Cc2ccccc2)SC[C@H]1C(=O)O (some centres not stated)
20,234 to 235 °C,CCNc1nc(-c2ccc(NC(=O)OCc3cccnc3)cc2)ccc1C(=O)NC
21,117 to 119 °C,CN1CCC(c2nn(-c3ccccc3C#N)c3ccccc23)CC1
22,132 to 134 °C,O=C(O)Cc1cccc(Cc2nc3c(F)c(F)cc(F)c3s2)c1
23,162 to 170 °C,COc1ccc(NC(=O)Nc2ccc(Cl)c(Cl)c2)cc1NC(=S)Nc1ccc(Cl)c([N+](=O)[O-])c1
24,> 300 °C,CCCCc1cc(-c2nnn[nH]2)ncc1C(=O)O
25,185 to 187 °C,COc1ccc(C(=O)c2cc(Cl)ccc2NS(=O)(=O)c2ccc(C)cc2)c(O)c1OC
26,178 to 181 °C,COC(=O)CCc1ccc(Oc2ccc(-c3ccc(C(=N)N)cc3)nn2)cc1

row,melting point,Compound
1,97 to 98 °C,Oc1cc2ccsc2c(Cl)c1Cl
2,100 to 101 °C,CCC(CC)c1nn(-c2ccc(C(F)(F)F)cn2)cc1CCCOc1c(CC(=O)O)cccc1OC
3,297 to 299 °C,COC(=O)c1ccc(C(=O)NCCNC(=O)c2ccc(C(=O)OC)cc2)cc1
4,86 to 87 °C,CCOC(=O)CN(c1ccncc1F)n1ccc2ccccc21
5,182 to 185 °C,Cc1ccc(CC(=S)N2CCOCC2)cc1
6,135 to 138 °C,COc1cc(C)cc(C2=NC(C)(C)CO2)c1N
7,96 °C,O=S(=O)(CC(Cl)(Cl)Cl)c1cc(Cl)ccc1Cl
8,282 to 286 °C,O=c1[nH]c2ccc(Cl)cc2c(-c2ccccc2F)c1CO
9,184 to 186 °C,O=C(O)COc1cc2c(c(Cl)c1Cl)C(=O)C(c1ccccc1)(C1CCCC1)C2 (configuration not stated)
10,205 to 208 °C,CCOC(=O)c1cc(C)nc2sc(C(N)=O)c(N)c12
11,108 °C,CC(C)C[C@H]1[C@@H](O)C(=O)N1C(=O)OC(C)(C)C
12,144 to 145 °C,NC(=O)N1CC(c2ccccc2)c2ccccc21 (configuration not stated)
13,257 to 260 °C,COc1cccc2c(=O)[nH]nc(C)c12
14,161 to 162 °C,CCCSc1sc(C(=O)OCC)c2c1-c1[nH]ncc1CC2
15,77 to 79 °C,CCCCN(C=O)C1CC(C)(C)N(O)C(C)(C)C1
16,175 to 192 °C,N=C(N)Nc1nc(CSCCC2=NS(=O)(=O)NC(N)=N2)cs1
17,221 to 227 °C,CS(=O)(=O)N(N)C(=O)c1cc([N+](=O)[O-])c(C(F)(F)F)cc1N
18,122 to 125 °C,C=CCOc1ccccc1OCC(O)CN1CCC(N2CCCNC2=O)CC1 (configuration not stated)
19,140 to 142 °C,CC1Cc2cccc(-c3ccccc3)c2C(=O)O1 (configuration not stated)
20,191 to 193 °C,O=C1Nc2cc(C(F)(F)F)cc(C(F)(F)F)c2C1(O)c1cc(Cl)ccc1O (configuration not stated)
21,153 to 156 °C,CCc1nc2c(cnn2CC)c(NC2CCOCC2)c1CNC(=O)c1cc(C)cc(C(=O)NCc2ccc(Cl)c(-c3cccc(C=O)c3)c2)c1
22,80 to 82 °C,CC(C(=O)O)c1c(Sc2ccccc2)c2cc(F)ccc2n1Cc1ccc(Cl)cc1 (configuration not stated)
23,92 to 94 °C,CC(C)CCCC(C)C1CCC2C3CC=C4CC(N)CCC4(C)C3CCC12C (configuration not stated)
24,239 to 241 °C,NC(=O)N1C(=O)/C(=C(\O)c2cccs2)c2cc(F)c(Cl)cc21
25,153 to 155 °C,NS(=O)(=O)c1ccc(-n2nc(C(F)(F)F)cc2-c2ccc(Cl)cc2Cl)cc1
